Source: patent publication US20070073056A1, “4-Substituted Pyrazoline Compounds, their Preparation and Use as Medicaments” (LABORATORIOS DEL DR. ESTEVE, S.A., priority 2005, published 2007)

Biological target: CB1-receptor (UniProt P20272)
Assay: binding of the pyrazoline compounds to CB1-receptors (Pharmacological Methods, Part I)
Design: other: 10^−7 M; other: 10^−8 M; species or system human or rat
Method: I. In-vitro Determination of Affinity to CB1/CB2-Receptors
The in-vitro determination of the affinity of the inventive 4-substituted pyrazoline compounds to CB1/CB2-Rezeptors is carried out as described in the publication of Ruth A. Ross, Heather C. Brockie et al., “Agonist-inverse agonist characterisation at CB1 and CB2 cannabinoid receptors of L-759633, L759656 and AM630”, British Journal of Pharmacology, 126, 665-672, (1999), whereby the transfected human CB1 and CB2 receptors of Receptor Biology, Inc. are used. The radioligand used for both receptors is [^3H]-CP55940. The respective parts of the description is hereby incorporated by reference and forms part of the present disclosure.
Rat Cerebellum CB1 Binding
Binding affinity to CB1 receptor was evaluated according to a modification of the method described by Govaerts et al., Eur J Pharmac Sci 23, 233-243 (2004). The respective parts of the description is hereby incorporated by reference and forms part of the present disclosure.
Briefly, cerebellum from male wistar rats (250-300 g) were carefully dissected on ice and homogenates were prepared with Potter-Helveheim in a cold 50 mM Tris-HCl solution containing 5 mM MgCl2, 1 mM EDTA and 0.25 M sucrose, pH 7.4. The suspension was centrifuged at […] for 5 minutes. The supernatants were collected and centrifuged 50,000×g for 15 minutes. The resulting pellets were then resuspended in Tris-HCl buffer without sucrose, homogenized and incubated for 15 min at 37° C. in an orbital shaker bath and centrifuged again at 50,000×g for 15 min. Pellets were weighted, resuspended in Tris-HCl buffer without sucrose, homogenized with Ultraturrax at 13,500 rpm for 3×5 seconds and alicuoted in 0.9 ml volumes in Eppendorf tubes. Alicuotes were centrifuged at 20,800×g for 5 minutes, supernatants discarded and pellets were frozen at −80° C. until use. Total protein concentration was determined using the Bio-Rad Lowry method based kit. Competitive binding experiments were performed in presence of 1 nM [^3H]-CP 55,940 in siliconized glass tubes containing 100 μg protein/tube resuspended in 1 ml final volume of 50 mM Tris-HCl, 5 mM MgCl2, 1 mM EDTA, 0.5% (w/v) bovine serum albumin, pH 7.4. Compounds were present at various concentrations and the non specific binding was determined in the presence of 10 μM HU-210. After 1 hour incubation at 30° C., the suspension was rapidly filtered through 0.5% PEI pre-treated GF/B fiber filters on a 96-well harvester and washed 3 times with 3 ml ice-cold binding buffer without bovine serum albumin. Radioactivity on filters was measured with Wallac Winspectral 1414 counter by liquid scintillation in 6 ml Ecoscint H (National Diagnostics, U.K.). Assays were made in triplicates.
Binding data were analyzed by non-linear regression with the software GraphPad Prism Version 3.03.
The binding of the pyrazoline compounds of general formula I to CB1-receptors was determined according to the method described in the section Pharmacological Methods, Part I.

Inhibition (10^−7 M) | Inhibition (10^−8 M, in %) | Structure (SMILES)
−6.3% | −2.2 | C[C@H]1C(C(=O)O)=NN(c2ccc(Cl)cc2Cl)[C@H]1c1ccc(F)cc1 (racemic) [Example 221, cis-1-(2,4-dichlorophenyl)-5-(4-fluorophenyl)-4-methyl-4,5-dihydro-1H-pyrazole-3-carboxylic acid]
−6.9% | −5 | COc1ccc([C@H]2[C@@H](C)C(C(=O)O)=NN2c2ccc(Cl)cc2Cl)cc1 (racemic) [Example 261, cis-1-(2,4-dichlorophenyl)-5-(4-methoxyphenyl)-4-methyl-4,5-dihydro-1H-pyrazole-3-carboxylic acid]
11% | 7.2 | C[C@H]1C(C(=O)O)=NN(c2ccc(Cl)cc2Cl)[C@H]1c1cccs1 (racemic) [Example 367, cis-1-(2,4-dichlorophenyl)-4-methyl-5-(thiophen-2-yl)-4,5-dihydro-1H-pyrazole-3-carboxylic acid]
41% | 20.7 | C[C@H]1C(C(=O)NN2CCCC2)=NN(c2ccc(Cl)cc2Cl)[C@H]1c1ccc(Cl)cc1 (relative stereo) [Example 7, cis-5-(4-Chloro-phenyl)-1-(2,4-dichloro-phenyl)-4-methyl-4,5-dihydro-1H-pyrazole-3-carboxylic acid pyrrolidin-1-ylamide]
34.9% | 27.7 | C[C@@H]1C(C(=O)NN2CCOCC2)=NN(c2ccc(Cl)cc2Cl)[C@@H]1c1ccc(Cl)cc1 (relative stereo) [Example 101, cis-5-(4-chlorophenyl)-1-(2,4-dichlorophenyl)-4-methyl-N-morpholino-4,5-dihydro-1H-pyrazole-3-carboxamide]
31.7% | −0.4 | C[C@@H]1C(C(=O)NN2C(=O)c3cccc4cccc(c34)C2=O)=NN(c2ccc(Cl)cc2Cl)[C@@H]1c1ccc(Cl)cc1 (relative stereo) [Example 104, cis-5-(4-Chlorophenyl)-1-(2,4-dichlorophenyl)-4-methyl-4,5-dihydro-1H-pyrazole-3-carboxylic acid (1,3-dioxo-1H,3H-benzo[de]isoquinolin-2-yl)-amide]
31.4% | 35.9 | C[C@@H]1C(C(=O)NN2Cc3cccc4cccc(c34)C2)=NN(c2ccc(Cl)cc2Cl)[C@@H]1c1ccc(Cl)cc1 (relative stereo) [Example 105, cis-5-(4-Chlorophenyl)-1-(2,4-dichlorophenyl)-4-methyl-4,5-dihydro-1H-pyrazole-3-carboxylic acid (1H,3H-benzo[de]isoquinolin-2-yl)-amide]
28.3% | −13 | C[C@@H]1C(C(=O)NCC2CCCCC2)=NN(c2ccc(Cl)cc2Cl)[C@@H]1c1ccc(Cl)cc1 (relative stereo) [Example 114, cis-5-(4-chlorophenyl)-N-(cyclohexylmethyl)-1-(2,4-dichlorophenyl)-4-methyl-4,5-dihydro-1H-pyrazole-3-carboxamide]
75.5% | 37 | C[C@@H]1C(C(=O)NN2CCCCCCC2)=NN(c2ccc(Cl)cc2Cl)[C@@H]1c1ccc(Cl)cc1 (relative stereo) [Example 120, cis-N-(azocan-1-yl)-5-(4-chlorophenyl)-1-(2,4-dichlorophenyl)-4-methyl-4,5-dihydro-1H-pyrazole-3-carboxamide]
−11.2% | 3 | C[C@@H]1C(C(=O)O)=NN(c2ccc(Cl)cc2Cl)[C@H]1c1ccc(Br)cc1 (relative stereo) [Example 200, trans-5-(4-bromophenyl)-1-(2,4-dichlorophenyl)-4-methyl-4,5-dihydro-1H-pyrazole-3-carboxylic acid]
25.9% | 5.4 | C[C@H]1C(C(=O)NN2CCc3ccccc32)=NN(c2ccc(Cl)cc2Cl)[C@H]1c1ccc(F)cc1 (relative stereo) [Example 235, cis-1-(2,4-dichlorophenyl)-5-(4-fluorophenyl)-N-(indolin-1-yl)-4-methyl-4,5-dihydro-1H-pyrazole-3-carboxamide]
−23.3% | −27.3 | C[C@@H]1C(C(=O)NN2CCCCC2)=NN(c2ccc(Cl)cc2Cl)[C@H]1c1ccc(O)cc1 (relative stereo) [Example 344, trans-1-(2,4-dichlorophenyl)-5-(4-hydroxyphenyl)-4-methyl-N-(piperidin-1-yl)-4,5-dihydro-1H-pyrazole-3-carboxamide]
11.3% | 12.2 | C[C@@H]1C(C(=O)O)=NN(c2ccccc2Cl)[C@@H]1c1ccc(Cl)s1 (relative stereo) [Example 363, cis-1-(2-chlorophenyl)-5-(5-chlorothiophen-2-yl)-4-methyl-4,5-dihydro-1H-pyrazole-3-carboxylic acid]
17.3% | 13.8 | C[C@H]1C(C(=O)O)=NN(c2ccc(Cl)cc2Cl)[C@H]1c1ccc(Br)cc1 (relative stereo) [Example 413, cis-5-(4-bromophenyl)-1-(2,4-dichlorophenyl)-4-methyl-4,5-dihydro-1H-pyrazole-3-carboxylic acid]
79.3% | 32.3 | C[C@@H]1C(C(=O)NN2CCc3ccccc32)=NN(c2ccc(Cl)cc2Cl)[C@@H]1c1ccc(Br)cc1 (relative stereo) [Example 415, cis-5-(4-bromophenyl)-1-(2,4-dichlorophenyl)-N-(indolin-1-yl)-4-methyl-4,5-dihydro-1H-pyrazole-3-carboxamide]
38.5% | 14.8 | C[C@@H]1C(C(=O)NN2CCCCC2)=NN(c2ccc(Cl)cc2Cl)[C@@H]1c1ccc(F)cc1.Cl (relative stereo) [Example 417, cis-1-(2,4-dichlorophenyl)-5-(4-fluorophenyl)-4-methyl-N-(piperidin-1-yl)-4,5-dihydro-1H-pyrazole-3-carboxamide hydrochloride]
31.2% | 38 | CCOC(=O)C1=NN(c2ccc(Cl)cc2Cl)[C@@H](c2ccccc2)[C@@H]1C (relative stereo) [Example 421, trans-ethyl 1-(2,4-dichlorophenyl)-4-methyl-5-phenyl-4,5-dihydro-1H-pyrazole-3-carboxylate]
42.6% | 28.4 | CC[C@@H]1C(C(=O)NN2CCCCC2)=NN(c2ccc(Cl)cc2Cl)[C@@H]1c1ccc(Br)cc1.Cl (relative stereo) [Example 428, cis-5-(4-bromophenyl)-1-(2,4-dichlorophenyl)-4-ethyl-N-(piperidin-1-yl)-4,5-dihydro-1H-pyrazole-3-carboxamide hydrochloride]
36.2% | 28.7 | C[C@@H]1C(C(=O)NN2CCCCCC2)=NN(c2ccc(Cl)cc2Cl)[C@@H]1c1ccc(F)cc1 (stereo in doubt) [Example 414, cis-N-(azepan-1-yl)-1-(2,4-dichlorophenyl)-5-(4-fluorophenyl)-4-methyl-4,5-dihydro-1H-pyrazole-3-carboxamide]
−15.4% | −11.1 | COc1ccc([C@@H]2[C@@H](C)C(C(=O)O)=NN2c2ccc(Cl)cc2Cl)cc1 [Example 412, (4R,5S)-1-(2,4-dichlorophenyl)-5-(4-methoxyphenyl)-4-methyl-4,5-dihydro-1H-pyrazole-3-carboxylic acid]

Structure (SMILES) | Inhibition (10^−7 M) | Inhibition (10^−8 M, in %)
C[C@@H]1C(C(=O)NN2CCN(C3CCCC3)CC2)=NN(c2ccc(Cl)cc2Cl)[C@@H]1c1ccc(Cl)cc1.Cl (relative stereo) [Example 100, cis-5-(4-chlorophenyl)-N-(4-cyclopentylpiperazin-1-yl)-1-(2,4-dichlorophenyl)-4-methyl-4,5-dihydro-1H-pyrazole-3-carboxamide hydrochloride] | 32.6% | 5.4
C[C@H]1C(C(=O)NN2CC3CCCC3C2)=NN(c2ccc(Cl)cc2Cl)[C@H]1c1ccc(F)cc1.Cl (relative stereo) [Example 233, cis-1-(2,4-dichlorophenyl)-5-(4-fluorophenyl)-N-(hexahydrocyclopenta[c]pyrrol-2(1H)-yl)-4-methyl-4,5-dihydro-1H-pyrazole-3-carboxamide hydrochloride] | 43.9% | 27.9
